Data: patent US10201559B2, “Compositions of selenoorganic compounds and methods of use thereof” (Alltech, Inc., priority 2014, dated 2019)

How the values were obtained:
[1] = test system: Tau; test: Western blot, ratio of phosphorylated Tau to total Tau in IMR-32 cells; type: cell-based, human; conditions: 150 ppb, 24 hr
Protocol: (§1) IMR-32 and AML12 cells were seeded on 6-well plates, and then treated with vehicle and various compounds for 6 and 24 hr, as described above. After treatments, cells were rinsed with ice-cold PBS, and lysed in the ice-cold RIPA buffer containing complete proteinase and phosphotase inhibitors (Themo-Fisher Scientific, Waltham, Mass.) on ice for 30 min. Cell lysates were collected using a cell scraper and transfer pipette, and then centrifuged at 12000 g for 30 min at 4° C. to remove the DNA pellet and obtain the protein extract. Protein levels in the supernatant of these cell lysates were determined using the Pierce Micro-BCA protein assay kit (Themo Scientific-Piece Biotechnology, Rockford, Ill.) according to the manufacturer's protocol.
(§2) For Western blot analysis, five micrograms of total proteins from vehicle- and compound(s)-treated cells were subjected to SDS-PAGE gel separation, and then transferred to PVDF membranes, as described previously (Reddy, Liu et al. 2008 Science). […] All primary antibodies except G6PC (Santa Cruz), Actb (Li-COR, Lincoln, Nebr.), Elf2bε and pElf2bε (Abcam, Cambridge, Mass.) were purchased from Cell Signaling Inc. Positive signals on the membrane blots were detected using the Amersham's enhanced chemiluminescence Western Blotting Prime Detection reagents (GE healthcare Lifescience, Pittsburgh, Pa.). […]

[2] = test system: Gsk3b; test: Western blot, Gsk3b in IMR-32 cells; type: cell-based, human; conditions: 150 ppb, 24 hr, compared to control cells
Protocol: as §1, §2

[3] = test system: PEN2; test: Western blot, PEN2 in IMR-32 cells; type: cell-based, human; conditions: 150 ppb, 24 hr
Protocol: as §1, §2

[4] = test system: C2C12 cells; test: Cell viability assay, C2C12; type: cell-based, mouse; conditions: 24 hr and 48 hr, same doses
Protocol: Cell viability in cultured cells was determined using Promega's CellTiter96® AQueous One Solution Cell Proliferation Assay kits, according to the Manufacturer's protocol. In brief, equal number of C2C12 (1×10^4 cells/well), AML-12 (1×10^4 cells/well) and IMR-32 (2×10^4 cells/well) were seeded on 96-well clear plates (VWR) and treated with vehicle or compounds for 24, […] and/or 72 hr. Then, cultured cells were incubated with AQueous One solution (100 ul/per well) at 37° C. for 1 hr, and the absorbance of OD490 nm in each sample was determined by the Bio-Tek microplate reader. Cell viability in culture cells were determined by the subtraction of OD490 nm in cultured cells with the OD490 nm in plain culture media (without seeding of cells). Eight samples per each treatment were examined for the above analysis. Data are presented as Mean±sem of eight samples.

[5] = test system: HEK293T cells; test: Fluorescence analysis of mitochondrial potential in HEK293T cells; type: cell-based, human; conditions: for MT potential (Mitotracker Orange fluorescence): 4.5 hr; for MT potential / mitochondrial activity in kidney cells: dose not stated
Protocol: HEK293T cells were cultured in 8-chamber glass slides (1×10^4 cells/chamber) for 24 hours, and then treated with various concentrations of compounds or its respective sulfur analogs (dissolved in sterilized water) for 4.5 hr. These compound-treated cells were rinsed twice with PBS, and incubated with Mitotracker Orange Fluorescence Dye (Invitrogen) at 37° C. for 30 min, and then replaced with fresh PBS according to the Manufacturer's protocol. Then fluorescent signals (mitochondrial potential) in these living cells were recorded using a Zeiss Axio Vert.A1 fluorescence microscope (Thornwood, N.Y.). At least three samples in each treatment group were analyzed under the fluorescent microscope.

[6] = test system: PSEN; test: Western blot, PSEN in IMR-32 cells; type: cell-based, human; conditions: 150 ppb, 24 hr
Protocol: as §1, §2

[7] = test system: beta-secretase BACE; test: Western blot, BACE in IMR-32 cells; type: cell-based, human; conditions: 150 ppb, 24 hr
Protocol: as §1, §2

[8] = test system: pTau S396; test: Western blot, pTau S396 in IMR-32 cells; type: cell-based, human; conditions: 150 ppb, 24 hr
Protocol: as §1, §2

SMILES | ratio of total pTauS396 and pTauS400/T403/S404 to total Tau proteins [1] | Gsk3b protein levels [2] | PEN2 protein [3] | cell viability [4] | MT potential (Mitotracker Orange fluorescence) ([5]; 37.5 ppb) | MT potential (Mitotracker Orange fluorescence) ([5]; 75 ppb) | MT potential / mitochondrial activity in kidney cells [5] | PSEN protein level [6] | beta-secretase BACE protein [7] | phosphorylation of Tau at S396 [8] | MT potential (Mitotracker Orange fluorescence) ([5]; all tested doses (37.5 and 75 ppb))
C[Se]C[C@H]1O[C@@H](n2cnc3c(N)ncnc32)C(O)C1O (stereo in doubt) [compound C, 5′-Methylselenoadenosine] | significantly attenuated total phosphorylation of Tau protein | statistically significant decrease of Gsk3b protein levels | but not PEN2 and beta-secretase BACE proteins were attenuated | did not affect cell viability | enhanced MT potential | less effects on MT potential | enhanced MT potential | significant reduction | but not PEN2 and beta-secretase BACE proteins were attenuated |  | 
Nc1ncnc2c1ncn2[C@@H]1O[C@H](C[Se]CC[C@@H](N)C(=O)O)C(O)C1O (stereo partly drawn) [compound D, 5′-Selenoadenosyl homocysteine] |  |  |  | did not affect cell viability |  |  | ineffective |  |  | had no effect on Tau phosphorylation at all tested serine/threonine residues | did not affect MT potential
C[Se]CC(NC(=O)CCC(N)C(=O)O)C(=O)O (stereo not drawn) [compound E, gamma-glutamyl-methylseleno-cysteine] | trend of reduced Tau phosphorylation |  |  |  |  |  |  |  |  | significantly down-regulated | 
